From patent publication US7217710B2, “Substituted pyrazolopyrimidines” (SmithKline Beecham Corporation, priority 2001, dated 2007)

Legend:
Type in all cases: biochemical
[1] = biological target: T1, catalytic domain of human VEGFR3 (Homo sapiens, UniProt P35916, H890Q); assay: VEGFR-3 Homogenous Time-Resolved Fluorescence Assay (VEGFR-3-HTRF)
T1 construct: made in house; host or cells: Sf9 insect cells (baculovirus, pFastBac1)
Summary of the method: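 GST-tagged human VEGFR3 catalytic domain (aa 819–1298, Sf9-expressed), pre-autophosphorylated 45 min with ATP/Mg, then 1 nM enzyme with 0.36 μM biotinylated peptide, 75 μM ATP, 10 mM MgCl2, pH 7.2, 1.5 h at room temperature. EDTA stop; HTRF detection; IC50 from hyperbolic fit of % control.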

[2] = biological target: Recombinant GST-Tie2 (Homo sapiens, UniProt Q02763); assay: Tie2 Fluorescence Polarization Kinase Activity Assay (TIE2-FP)
Chain of Recombinant GST-Tie2 (Q02763 23-1124): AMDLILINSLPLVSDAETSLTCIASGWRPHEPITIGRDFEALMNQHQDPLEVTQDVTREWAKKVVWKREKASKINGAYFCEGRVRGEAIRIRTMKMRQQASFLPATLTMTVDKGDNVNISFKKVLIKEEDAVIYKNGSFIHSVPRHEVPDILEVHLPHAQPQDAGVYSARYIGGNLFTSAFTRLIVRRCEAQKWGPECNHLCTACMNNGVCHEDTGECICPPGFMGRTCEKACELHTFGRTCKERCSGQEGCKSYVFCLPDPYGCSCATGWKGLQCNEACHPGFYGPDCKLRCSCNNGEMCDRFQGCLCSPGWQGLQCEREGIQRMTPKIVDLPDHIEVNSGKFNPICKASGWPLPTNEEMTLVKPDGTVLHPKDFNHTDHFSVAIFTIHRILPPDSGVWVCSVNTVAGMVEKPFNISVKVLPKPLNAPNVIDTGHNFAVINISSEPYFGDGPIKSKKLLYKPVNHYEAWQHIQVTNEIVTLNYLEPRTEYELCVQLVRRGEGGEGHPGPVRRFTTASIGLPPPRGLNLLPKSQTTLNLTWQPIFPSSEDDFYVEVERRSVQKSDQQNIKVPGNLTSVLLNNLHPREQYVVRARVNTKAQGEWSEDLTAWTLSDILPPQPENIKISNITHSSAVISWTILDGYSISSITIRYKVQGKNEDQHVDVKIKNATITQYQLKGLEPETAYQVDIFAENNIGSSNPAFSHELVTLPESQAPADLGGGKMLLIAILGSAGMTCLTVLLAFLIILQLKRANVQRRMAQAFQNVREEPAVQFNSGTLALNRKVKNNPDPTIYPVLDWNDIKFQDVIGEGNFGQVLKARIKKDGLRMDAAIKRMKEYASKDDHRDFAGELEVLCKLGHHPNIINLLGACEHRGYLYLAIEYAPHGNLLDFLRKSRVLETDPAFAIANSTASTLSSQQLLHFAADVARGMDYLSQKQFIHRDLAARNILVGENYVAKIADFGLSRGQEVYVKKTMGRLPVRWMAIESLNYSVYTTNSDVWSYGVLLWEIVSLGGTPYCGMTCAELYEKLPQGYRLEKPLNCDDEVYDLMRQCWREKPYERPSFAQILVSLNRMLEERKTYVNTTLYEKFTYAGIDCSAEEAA
Experimental: Tie2 Fluorescence Polarization Kinase Activity Assay: (TIE2-FP)
Activation of Recombinant Tie2 Activation:
Recombinant GST-Tie2 is activated by incubating the enzyme in 20 mM Tris-HCl, pH 7.5, 12 mM MgCl2, 100 mM NaCl, 20 μM sodium vanidate, 1 mM DTT and 300 μM ATP at room temperature for 2 hours. The activation mixture is then passed through a NAP-25 desalting column (Pharmacia Biotech cat. no. 17-0852-02) to remove the free ATP. The activated enzyme is stored as aliquots at −80° C. in 20 mM Tris-HCl, pH 7.5 and 100 mM NaCl.
The final assay conditions are 50 mM HEPES, pH 7.5, 5% DMSO (when screening compounds), 200 μM ATP, 5 mM MgCl2, 1 mM DTT, 50 μM sodium vanidate, 1 nM activated enzyme, and 200 μM peptide. IC50's of compounds are measured under subsaturating ATP (200 μM) and varying concentrations of activated Tie2 and peptide substrate (RFWKYEFWR-OH; MW 1873 Da, TFA salt). Panvera Anti-phosphotyrosine antibody (Cat#P2840) and PTK Green Tracer (Cat#P2842) are used to detect the phosphorylated peptide. Polarization is measured on a TECAN Polarion in 138-second cycles for 30 minutes at room temperature. IC50's are then determined from the % polarization using normal calculation methods. The IC50 values are converted to pIC50 values, i.e., −log IC50 in Molar concentration.

[3] = biological target: T2, GST-VEGFR2 (Homo sapiens, UniProt P35968); assay: VEGF-R2 Enzyme Assay (VEGF-E2), LANCE method; details: for IC50: read-out: VEGFR2 PIC50 VEGFR-E2 assay
T2 construct: GST-VEGFR2, baculovirus expressed recombinant constructs of the intracellular domains; made in house
T2 sequence (P35968 786-1356 limits assumed): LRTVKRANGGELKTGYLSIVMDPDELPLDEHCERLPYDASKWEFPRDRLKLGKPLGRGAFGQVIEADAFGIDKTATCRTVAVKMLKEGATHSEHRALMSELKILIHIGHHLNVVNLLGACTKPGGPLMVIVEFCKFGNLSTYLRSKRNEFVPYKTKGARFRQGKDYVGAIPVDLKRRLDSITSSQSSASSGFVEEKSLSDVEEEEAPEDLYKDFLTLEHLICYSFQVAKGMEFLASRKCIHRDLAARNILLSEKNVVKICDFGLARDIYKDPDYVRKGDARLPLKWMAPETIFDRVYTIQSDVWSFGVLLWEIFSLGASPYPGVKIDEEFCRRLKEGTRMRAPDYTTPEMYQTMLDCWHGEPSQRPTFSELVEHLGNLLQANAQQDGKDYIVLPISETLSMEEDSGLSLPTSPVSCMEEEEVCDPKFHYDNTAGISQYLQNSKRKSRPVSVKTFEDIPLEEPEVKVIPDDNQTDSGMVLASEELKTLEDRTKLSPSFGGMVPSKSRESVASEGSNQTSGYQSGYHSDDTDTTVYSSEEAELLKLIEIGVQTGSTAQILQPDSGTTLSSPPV

[4] = biological target: T3, GST-TIE2 (intracellular domains of human TIE2) (Homo sapiens, UniProt Q02763); assay: TIE-2 Enzyme Assay (TIE2-E2), LANCE method; details: read-out: TIE2 PIC50 TIE2-E2 assay
T3 construct: made in house
T3 sequence (Q02763 762-1104): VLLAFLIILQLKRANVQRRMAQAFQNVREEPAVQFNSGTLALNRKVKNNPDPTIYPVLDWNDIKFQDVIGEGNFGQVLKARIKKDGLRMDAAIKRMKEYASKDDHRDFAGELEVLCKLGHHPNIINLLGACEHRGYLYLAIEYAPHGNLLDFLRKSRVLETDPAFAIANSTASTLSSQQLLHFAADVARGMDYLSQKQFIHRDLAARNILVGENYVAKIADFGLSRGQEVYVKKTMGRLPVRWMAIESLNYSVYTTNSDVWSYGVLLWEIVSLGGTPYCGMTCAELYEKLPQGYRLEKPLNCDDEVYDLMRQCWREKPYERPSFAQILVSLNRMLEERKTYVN
Summary of the method: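 GST-tagged human TIE2 intracellular domain (aa 762–1104), preactivated 2 h with 80 μM ATP, then 5 nM enzyme run 2 h at room temperature with 1 μM biotinylated D1–15 peptide, 80 μM ATP, HEPES pH 7.4, 2.4% DMSO. Phosphotyrosine detected by LANCE (Eu anti-pTyr/streptavidin-APC) after EDTA stop; IC50 by nonlinear regression, reported as pIC50.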

T1 sequence (P35916 with tags, fused parts or gaps isoform P35916-1 H890Q): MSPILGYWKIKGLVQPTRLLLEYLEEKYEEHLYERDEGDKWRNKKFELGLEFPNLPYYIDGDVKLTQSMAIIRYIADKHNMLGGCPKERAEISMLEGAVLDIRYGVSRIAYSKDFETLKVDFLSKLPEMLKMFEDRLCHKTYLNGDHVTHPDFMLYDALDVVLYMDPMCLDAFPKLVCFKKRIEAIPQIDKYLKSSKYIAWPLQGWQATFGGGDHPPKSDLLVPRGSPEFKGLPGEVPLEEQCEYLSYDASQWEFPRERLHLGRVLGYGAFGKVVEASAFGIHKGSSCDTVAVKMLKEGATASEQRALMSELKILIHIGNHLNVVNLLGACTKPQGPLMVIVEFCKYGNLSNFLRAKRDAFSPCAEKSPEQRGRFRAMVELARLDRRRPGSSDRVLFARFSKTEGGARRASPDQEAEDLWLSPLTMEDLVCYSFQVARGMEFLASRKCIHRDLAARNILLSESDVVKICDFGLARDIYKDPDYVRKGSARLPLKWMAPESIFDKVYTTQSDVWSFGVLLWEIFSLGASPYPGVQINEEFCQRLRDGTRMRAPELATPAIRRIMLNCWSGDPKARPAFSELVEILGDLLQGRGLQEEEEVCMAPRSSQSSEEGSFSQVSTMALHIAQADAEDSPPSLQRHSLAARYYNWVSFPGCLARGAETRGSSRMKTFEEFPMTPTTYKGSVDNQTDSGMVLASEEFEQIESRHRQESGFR

1-{4-[Benzyl-(2-morpholin-4-yl-ethylamino)-1H-pyrazolo[3,4-d]pyrimidin-3-yl]-phenyl}-3-(fluoro-trifluoromethyl-phenyl)-thiourea [Example 51]
VEGFR3 PIC50 VEGFR-3-HTRF assay [1]: + (+ = PIC50 = 5.00 to less than 6.00)
TIE2 % inhibition (at 10 μM) TIE2-FP assay ([2]; at 10 μM): 0%
VEGFR2 PIC50 VEGFR-E2 assay [3]: + (+ = PIC50 = 5.00 to less than 6.00)

CCN(CC)CCCCNc1ncnc2c1c(-c1ccc(NC(=O)Nc3cc(C(F)(F)F)ccc3F)cc1)nn2C [Example 34, 1-{4-[(4-Diethylamino-butylamino)-methyl-1H-pyrazolo[3,4-d]pyrimidin-3-yl]-phenyl}-3-(2-fluoro-5-trifluoromethyl-phenyl)-urea]
VEGFR3 PIC50 VEGFR-3-HTRF assay [1]: + (+ = PIC50 = 5.00 to less than 6.00)
IC50 [2]: < 100 nM
VEGFR2 PIC50 VEGFR-E2 assay [3]: + (+ = PIC50 = 5.00 to less than 6.00)

O=C(Nc1ccc(-c2n[nH]c3ncnc(N(CCN4CCOCC4)Cc4ccccc4)c23)cc1)Nc1cc(C(F)(F)F)ccc1F [Example 50, 1-{4-[Benzyl-(2-morpholin-4-yl-ethylamino)-1H-pyrazolo[3,4-d]pyrimidin-3-yl]-phenyl}-3-(fluoro-trifluoromethyl-phenyl)-urea]
VEGFR3 PIC50 VEGFR-3-HTRF assay [1]: + (+ = PIC50 = 5.00 to less than 6.00)
IC50 [2]: < 100 nM
VEGFR2 PIC50 VEGFR-E2 assay [3]: ++ (++ = PIC50 = 6.00 to less than 7.00)

CCc1cccc(NC(=O)Nc2ccc(-c3nn(Cc4ccccc4)c4nc(NCCN5CCOCC5)ncc34)cc2)c1 [Example 52, 1-{4-[Benzyl-(2-morpholin-4-yl-ethylamino)-1H-pyrazolo[3,4-d]pyrimidin-3-yl]-phenyl}-3-(ethyl-phenyl)-urea]
VEGFR3 PIC50 VEGFR-3-HTRF assay [1]: + (+ = PIC50 = 5.00 to less than 6.00)
IC50 [2]: 100 to 300 nM
VEGFR2 PIC50 VEGFR-E2 assay [3]: + (+ = PIC50 = 5.00 to less than 6.00)

Cn1nc(-c2ccc(NS(=O)(=O)c3cccc(Cl)c3Cl)cc2)c2cnc(NCCN3CCOCC3)nc21 [Example 147]
inhibition at 10 µM [2]: 49%

Cn1nc(-c2ccc(NS(=O)(=O)c3ccccc3F)cc2)c2cnc(NCCN3CCOCC3)nc21 [Example 148]
inhibition at 10 µM [2]: 36%

Cn1nc(-c2ccc(NS(=O)(=O)c3cc(Cl)sc3Cl)cc2)c2cnc(NCCN3CCOCC3)nc21 [Example 149]
inhibition at 10 µM [2]: 38%

Cn1nc(-c2ccc(NS(=O)(=O)c3ccc(Cl)s3)cc2)c2cnc(NCCN3CCOCC3)nc21 [Example 150]
inhibition at 10 µM [2]: 41%

Cc1cc(-c2nn(C)c3nc(NCCN4CCOCC4)ncc23)ccc1NS(=O)(=O)c1cccc(Cl)c1Cl [Example 151]
inhibition at 10 µM [2]: 41%
IC50 [3]: > 10000 nM

Cc1cc(-c2nn(C)c3nc(NCCN4CCOCC4)ncc23)ccc1NS(=O)(=O)c1cccc(C(F)(F)F)c1 [Example 152]
inhibition at 10 µM [2]: 13%

Cc1cc(-c2nn(C)c3nc(NCCN4CCOCC4)ncc23)ccc1NS(=O)(=O)c1ccccc1F [Example 153]
inhibition at 10 µM [2]: 44%

Cc1cc(-c2nn(C)c3nc(NCCN4CCOCC4)ncc23)ccc1NS(=O)(=O)c1ccc(Cl)s1 [Example 154]
inhibition at 10 µM [2]: 37%

Cc1cc(-c2nn(C)c3nc(NCCN4CCOCC4)ncc23)ccc1NS(=O)(=O)c1cc(Cl)sc1Cl [Example 155]
inhibition at 10 µM [2]: 23%

Cn1nc(-c2ccc(NS(=O)(=O)c3cccc(C(F)(F)F)c3)cc2)c2cnc(NCCN3CCOCC3)nc21 [Example 156]
inhibition at 10 µM [2]: 23%

Cn1nc(-c2ccc(NS(=O)(=O)c3cccc(C(F)(F)F)c3)c(C(F)(F)F)c2)c2cnc(NCCN3CCOCC3)nc21 [Example 157]
inhibition at 10 µM [2]: 0%
IC50 [3]: > 10000 nM

CC(=O)c1cccc(NC(=O)Nc2ccc(-c3nn(C)c4nc(NCCN5CCOCC5)ncc34)cc2C)c1 [Example 163]
inhibition at 10 µM [2]: 25%
IC50 [4]: > 10000 nM
